Test results from PMC11819963, “In Vitro CO-Releasing and Antioxidant Properties of Sulfonamide-Based CAI-CORMs in a H2O2-Stimulated Human Achilles Tendon-Derived Cell Model” (Molecules, 2025).

Assays:
[1] = tested on: reduced myoglobin (deoxy-Mb); test: myoglobin carbonylation assay (CO release); design: species or system horse; conditions: for CO-release profile (MbCO formed over time): 1:1 and 1:6 CORM:Mb, up to 300 min, comparison within series; for MbCO formed: after 210 min of incubation, 1:1 CORM–Mb ratio (about 20 μM CORM)
Protocol: To determine the CO-releasing properties of the designed compounds, the myoglobin carbonylation assay was employed, with some deviations from the standard protocol, as previously reported. The analysed compounds were incubated with reduced myoglobin (deoxy-Mb), and spectra were recorded every 30 min up to 300 min. The release of CO was assessed by evaluating the formation of carbonylated myoglobin (Mb-CO) over time (Figure 3). […] The releasing properties of the compounds were also expressed as CO units released after 300 min of incubation with Mb, as reported in Figure S1 (Supplementary Information File).
All the employed reagents were of analytical grade and acquired from Merck (Milan, Italy). Gaseous CO was obtained from Rivoira (Milan, Italy). A Shimadzu UV1900 UV-Vis Spectrophotometer from 275 to 700 nm at the scanning rate of 200 nm/min was used to record UV-Vis absorption spectra in a disposable plastic cuvette (path length 0.44 cm). The second derivative spectra were generated with the Origin Lab software, and the Savitzky–Golay method was applied using 25 data points for the differentiation process. Neither an increase nor a decrease in the number of points caused changes in the wavelength or in the bandwidth. Lyophilised horse heart Mb was dissolved in phosphate-buffered saline flushed with N2 (PBS, 0.01 M, pH 7.4 to a 20–22 μM final concentration). Two millilitres of this freshly prepared stock solution were placed in a cuvette to record the UV-Vis absorption spectrum of met-Mb. Next, the solutions were divided into two halves: 10 μL of sodium dithionite (30 mg/mL) was added to the first half (reference), and the UV–Vis spectrum of deoxy-Mb was registered. After that, the solution was flushed with CO gas, and the Mb-CO spectrum was acquired. Sodium dithionite was added to the second half (sample), and a spectrum was recorded. Afterwards, a CORM DMSO solution was added to a final CORM concentration of 1.67 μM, 3.33 μM or 20 μM and gently mixed. The solution was covered with 300 μL of light mineral oil to avoid CO escaping and oxygenation of Mb, and the absorption spectrum was recorded at t = 0. Spectra were acquired every 30 min for 300 min, keeping the sample at 37 °C. When necessary, a freshly prepared sodium dithionite solution was added. After 300 min, the total Mb concentration at the end of the assay was determined by flushing the sample with CO gas. Mb-CO concentration at each time point was determined, as previously reported. Each experiment was replicated three times, and the data were expressed as mean ± SEM.

[2] = tested on: H2O2-stimulated human Achilles tendon-derived tenocytes; test: cell metabolic activity (MTT test), pre-incubation with H2O2; assay type: cell-based; conditions: 6.25–50 µM, after H2O2 100 µM for 3 h
Protocol: (§1) Human Achilles tendon-derived tenocytes (#TEN-F) were purchased by ZenBio Inc. (Durham, NC, USA) and maintained in complete alpha-MEM (EuroClone, Milan, Italy) supplemented with 10% of heat-inactivated FBS (Gibco, Thermo Fisher Scientific, Waltham, MA, USA) and 1% penicillin/streptomycin (EuroClone, Milan, Italy) at 37 °C and 5% CO2 and used from passage 3 up to passage 6.
(§2) Cells were seeded in 96-well plates (0.5 × 10^4/well) or 6-well plates (0.5 × 10^5/well) (ThermoFisher Scientific, Waltham, MA, USA) and left to adhere overnight at 37 °C and 5% CO2. For cell metabolic activity experiments (MTT test), tenocytes were treated with increasing concentrations of compounds (range 0–50 µM) for 24 and 48 h. Compounds were dissolved in DMSO to obtain a 200 mM stock solution, and they were afterwards diluted in complete alpha-MEM (DMSO final concentration = 0.1%) for further analyses. In a second set of MTT experiments, tenocytes were pre-incubated with 100 µM H2O2 for 3 h. After that, the pre-incubation medium was discarded and replaced with a fresh one containing the proper compound at increasing concentrations for 24 and 48 h. At the established time points, samples were processed for further analyses.
(§3) Tenocytes were seeded in 96 well tissue culture-treated plates (Falcon®, Corning Incorporated, Brooklyn, NY, USA) at 0.5 × 10^4 cells/well. Untreated cells (0 µM) were set as control (100% of cell metabolic activity). At the established time points, the exposure media were replaced by fresh medium containing 3-(4,5-dimethylthiazol-2-yl)-2,5-diphenyltetrazolium bromide (MTT) 0.5 mg/mL (Merck, Darmstadt, Germany) and processed as elsewhere reported [18]. The optical density in each well was measured using a spectrophotometer (Thermo Fisher Scientific, Waltham, MA, USA) at a wavelength of 540 nm. Each experiment was performed three times in triplicates per experimental condition (n = 9).

[3] = tested on: Human Achilles tendon-derived tenocytes; test: cell metabolic activity (MTT test), basal conditions; assay type: cell-based; conditions: 6.25–50 µM; for cell metabolic activity (MTT): vs untreated control
Protocol: as §1, §2, §3

Row | SMILES | cell metabolic activity (MTT) ([2]; 24 h exposure) | cytotoxicity (MTT) ([3]; 48 h exposure) | cell metabolic activity (MTT) ([3]; 48 h exposure) | cell metabolic activity (MTT) ([2]; 48 h exposure) | MbCO formed [1] | also measured
1 | CC#CCNc1ccc(S(N)(=O)=O)cc1.[C-]#[O+].[C-]#[O+].[C-]#[O+].[C-]#[O+].[C-]#[O+].[C-]#[O+].[Co].[Co] [2a, 4-(but-2-yn-1-ylamino)benzenesulfonamide hexacarbonyldicobalt] | best test compounds able to increase cell metabolic activity | biocompatible | increases tenocyte metabolic activity to a lesser extent than 1a |  |  | CO-release profile (MbCO formed over time) [1]: superimposable profile of MbCO formed over time; cell metabolic activity (MTT) ([3]; 24 h exposure): significantly increase cell metabolic activity
2 | CC#CCN(CC#CC)c1ccc(S(N)(=O)=O)cc1.[C-]#[O+].[C-]#[O+].[C-]#[O+].[C-]#[O+].[C-]#[O+].[C-]#[O+].[Co].[Co] [2c, 4-(Di(but-2-yn-1-yl)amino)benzenesulfonamide hexacarbonyldicobalt] | best test compounds able to increase cell metabolic activity |  | constantly effective on cell metabolic activity over the concentrations | the best compound in terms of cell metabolic activity increase |  | cell metabolic activity (MTT) ([3]; 24 h exposure): significantly increase cell metabolic activity
3 | CCC#CCNc1ccc(S(N)(=O)=O)cc1.[C-]#[O+].[C-]#[O+].[C-]#[O+].[C-]#[O+].[C-]#[O+].[C-]#[O+].[Co].[Co] [3a, 4-(pent-2-yn-1-ylamino)benzenesulfonamide hexacarbonyldicobalt] |  |  |  |  |  | CO-release profile (MbCO formed over time) [1]: superimposable profile of MbCO formed over time; cytotoxicity (MTT) ([2]; 24 h exposure): cytotoxic at the highest concentrations used; cytotoxicity (MTT) ([3]; 24 h exposure): reveal cytotoxicity
4 | CCC#CCOc1ccc(S(N)(=O)=O)cc1.[C-]#[O+].[C-]#[O+].[C-]#[O+].[C-]#[O+].[C-]#[O+].[C-]#[O+].[Co].[Co] [3b, 4-(Pent-2-yn-1-yloxy)benzenesulfonamide hexacarbonyldicobalt] |  | cytotoxic, already at the lowest concentration |  |  |  | 
5 | CCC#CCN(CC#CCC)c1ccc(S(N)(=O)=O)cc1.[C-]#[O+].[C-]#[O+].[C-]#[O+].[C-]#[O+].[C-]#[O+].[C-]#[O+].[Co].[Co] [3c, 4-(Di(pent-2-yn-1-yl)amino)benzenesulfonamide hexacarbonyldicobalt] |  | cytotoxic, already at the lowest concentration |  |  |  | 
6 | C#CCOc1ccc(S(N)(=O)=O)cc1 [B, 4-(prop-2′-ynyloxy)benzenesulfonamide, reference compound] |  |  | still ineffective |  |  | 
7 | C#CCNc1ccccc1.[C-]#[O+].[C-]#[O+].[C-]#[O+].[C-]#[O+].[C-]#[O+].[C-]#[O+].[Co].[Co] [CO-A, N-(prop-2-yn-1-yl)aniline hexacarbonyldicobalt, reference compound] | capable of increasing cell metabolic activity |  | extremely active in terms of cell metabolic activity increase | increase cell metabolic activity only at 50 µM | 8.1 µM | 
8 | C#CCOc1ccccc1.[C-]#[O+].[C-]#[O+].[C-]#[O+].[C-]#[O+].[C-]#[O+].[C-]#[O+].[Co].[Co] [CO-B, (Prop-2-yn-1-yloxy)benzene hexacarbonyldicobalt, reference compound] | capable of increasing cell metabolic activity |  | extremely active in terms of cell metabolic activity increase | can increase cell metabolic activity over the concentration range | 4 µM | 
9 | C#CCN(CC#C)c1ccccc1.[C-]#[O+].[C-]#[O+].[C-]#[O+].[C-]#[O+].[C-]#[O+].[C-]#[O+].[Co].[Co] [CO-C, N,N-di(prop-2-yn-1-yl)aniline hexacarbonyldicobalt, reference compound] | capable of increasing cell metabolic activity |  | extremely active in terms of cell metabolic activity increase | increase cell metabolic activity only at 50 µM | 3.72 µM | 
